Data as given in article PMC11538350, “Synthetic studies on the tetrasubstituted D-ring of cystobactamids lead to potent terephthalic acid antibiotics” (Communications Chemistry, 2024).
Converted amounts (≈) assume the structure as drawn.

Key:
Test in all cases: MIC assay
E. ae. CIP 106754 = type: cell-based, Enterobacter aerogenes; settings: Klebsiella aerogenes, CIP106754, read-out: MIC E. ae. CIP 106754
Protocol: (§1) All cystobactamids were evaluated in MIC-assays on a panel of representative ESKAPE strains with focus on A. baumannii (Tables 1 and 2). Compared to our previous work[10],[17],[18], we specifically included more challenging test strains with known resistances against gyrase inhibitors.
(§2) 2.1 Materials and Methods
(§3) Strains were cultivated according to standard procedures. Bacterial cryo-cultures were
(§4) resuspended into fresh MHBII (cation adjusted) medium. The resuspension
(§5) assay plate (Corning, #3788).
(§6) in parallel as a positive control. […]

A. baum. ATCC BAA-1710 = type: cell-based; settings: Acinetobacter baumannii, ATCCBAA1710; read-out: MIC A. baum. ATCC BAA-1710
Protocol: as §1, §2, §3, §4, §5, §6

A. baum. CIP-105742 = type: cell-based; settings: Acinetobacter baumannii, CIP105742; read-out: MIC A. baum. CIP-105742
Protocol: as §1, §2, §3, §4, §5, §6

A. baum. CIP-107292 = type: cell-based; settings: Acinetobacter baumannii, CIP107292; read-out: MIC A. baum. CIP-107292
Protocol: as §1, §2, §3, §4, §5, §6

A. baum. DSM-30008 = type: cell-based; settings: Acinetobacter baumannii, DSM30008; reference strain; read-out: MIC A. baum. DSM-30008
Protocol: as §1, §2, §3, §4, §5, §6

A. baum. R835 = type: cell-based; settings: Acinetobacter baumannii; read-out: MIC A. baum. R835
Protocol: as §1, §2, §3, §4, §5, §6

E. cloacae ATCC BAA-2468 = type: cell-based; settings: Enterobacter cloacae, ATCCBAA2468; read-out: MIC E. cloacae ATCC BAA-2468
Protocol: as §1, §2, §3, §4, §5, §6

E. coli ATCC-25922 = type: cell-based; settings: Escherichia coli, ATCC25922; reference strain; read-out: MIC E. coli ATCC-25922
Protocol: as §1, §2, §3, §4, §5, §6

E. coli LM705 = type: cell-based; settings: Escherichia coli, LM705, read-out: MIC E. coli LM705
Protocol: as §1, §2, §3, §4, §5, §6

K. pneum. CIP-104298 = type: cell-based; settings: Klebsiella pneumoniae, CIP104298; reference strain; read-out: MIC K. pneum. CIP-104298
Protocol: as §1, §2, §3, §4, §5, §6

K. pneum. KP10581 = type: cell-based; settings: Klebsiella pneumoniae; read-out: MIC K. pneum. KP10581
Protocol: as §1, §2, §3, §4, §5, §6

K. pneum. R-1525 = type: cell-based; settings: Klebsiella pneumoniae; read-out: MIC K. pneum. R-1525
Protocol: as §1, §2, §3, §4, §5, §6

P. ae. PA14 = type: cell-based; settings: Pseudomonas aeruginosa, PA14; reference strain; read-out: MIC P. ae. PA14
Protocol: as §1, §2, §3, §4, §5, §6

P. ae. PA14ΔmexAB = type: cell-based; settings: Pseudomonas aeruginosa, read-out: MIC P. ae. PA14ΔmexAB
Protocol: as §1, §2, §3, §4, §5, §6

S. aur. ATCC-29213 = type: cell-based; settings: Staphylococcus aureus, ATCC29213; reference strain; read-out: MIC S. aur. ATCC-29213
Protocol: as §1, §2, §3, §4, §5, §6

[1] = tested on: S. pneum. DSM-11865 (PRSP); type: cell-based; settings: Streptococcus pneumoniae; read-out: MIC S. pneum. DSM-11865 (PRSP)
Protocol: as §1, §2, §3, §4, §5, §6

E. faec. DSM-17050 (VRE) = type: cell-based, Enterococcus faecium; settings: Enterococcus; read-out: MIC E. faec. DSM-17050 (VRE)
Protocol: as §1, §2, §3, §4, §5, §6

Row | Compound | MIC (E. ae. CIP 106754) | MIC (A. baum. ATCC BAA-1710) | MIC (A. baum. CIP-105742) | MIC (A. baum. CIP-107292) | MIC (A. baum. DSM-30008) | MIC (A. baum. R835) | MIC (E. cloacae ATCC BAA-2468) | MIC (E. coli ATCC-25922) | MIC (E. coli LM705) | MIC (K. pneum. CIP-104298) | MIC (K. pneum. KP10581) | MIC (K. pneum. R-1525) | MIC (P. ae. PA14) | MIC (P. ae. PA14ΔmexAB) | MIC (S. aur. ATCC-29213) | MIC [1] | MIC (E. faec. DSM-17050 (VRE))
1 | C#CC[C@H](NC(=O)c1ccc(NC(=O)c2ccc(C#N)cc2)cc1)C(=O)Nc1ccc(C(=O)Nc2ccc3c(=O)n(-c4ccc(C(=O)O)cc4)cnc3c2OC(C)C)cc1 [Cmpd. 45b] | > 64 µg/mL | > 8 µg/mL | 2 µg/mL (≈ 2.49 µM) | > 8 µg/mL | 1 to 2 µg/mL (≈ 1.25 to 2.49 µM) | > 8 µg/mL | > 64 µg/mL | 1 µg/mL (≈ 1.25 µM) | > 64 µg/mL | > 64 µg/mL | 16 µg/mL (≈ 20 µM) | > 64 µg/mL | > 64 µg/mL | > 64 µg/mL | 8 µg/mL (≈ 9.98 µM) | > 64 µg/mL | 1 µg/mL (≈ 1.25 µM)
2 | O=C(O)c1cn(C2CC2)c2cc(N3CCNCC3)c(F)cc2c1=O [CIP, ciprofloxacin, reference compound] | > 6.4 µg/mL | 32 µg/mL (≈ 96.6 µM) | 0.03 to 0.25 µg/mL (≈ 0.0905 to 0.754 µM) | 64 µg/mL (≈ 193 µM) | 0.05 to 0.25 µg/mL (≈ 0.151 to 0.754 µM) | 32 µg/mL (≈ 96.6 µM) | – | 0.01 to 0.03 µg/mL (≈ 0.0302 to 0.0905 µM) | > 6.4 µg/mL | 0.025 to 0.05 µg/mL (≈ 0.0754 to 0.151 µM) | – | > 64 µg/mL | 0.025 to 0.2 µg/mL (≈ 0.0754 to 0.604 µM) | 0.006 to 0.1 µg/mL (≈ 0.0181 to 0.302 µM) | 0.2 to 1 µg/mL (≈ 0.604 to 3.02 µM) | > 6.4 µg/mL | 0.05 to 4 µg/mL (≈ 0.151 to 12.1 µM)
3 | C#CC[C@H](NC(=O)c1ccc(NC(=O)c2ccc(C#N)cc2)cc1)C(=O)Nc1ccc(C(=O)Nc2cc(O)c(C(=O)Nc3ccc(C(=O)O)cc3)cc2OC(C)C)cc1 [Cmpd. 3] | > 64 µg/mL | > 64 µg/mL | 2 µg/mL (≈ 2.52 µM) | > 64 µg/mL | 1 µg/mL (≈ 1.26 µM) | > 64 µg/mL | > 64 µg/mL | 1 µg/mL (≈ 1.26 µM) | > 64 µg/mL | > 64 µg/mL | > 64 µg/mL | > 64 µg/mL | > 64 µg/mL | > 64 µg/mL | > 64 µg/mL | > 64 µg/mL | > 64 µg/mL
4 | C#CC[C@H](NC(=O)c1ccc(NC(=O)c2ccc(C#N)cc2)cc1)C(=O)Nc1ccc(C(=O)Nc2ccc(-c3nc4ccc(C(=O)O)cc4[nH]3)c(O)c2OC(C)C)cc1 [Cmpd. 48] | > 64 µg/mL | > 8 µg/mL | > 8 µg/mL | > 8 µg/mL | 8 µg/mL (≈ 10.1 µM) | > 8 µg/mL | > 64 µg/mL | 64 µg/mL (≈ 81 µM) | > 64 µg/mL | > 64 µg/mL | 16 µg/mL (≈ 20.3 µM) | > 64 µg/mL | > 64 µg/mL | > 64 µg/mL | 4 µg/mL (≈ 5.06 µM) | > 64 µg/mL | 2 µg/mL (≈ 2.53 µM)
5 | C#CCC(NC(=O)c1ccc(NC(=O)c2ccc(C#N)cc2)cc1)C(=O)Nc1ccc(C(=O)Nc2ccc(C(=O)Nc3ccc(C(=O)O)cc3)c(O)c2OC(C)C)cc1 (centres unmarked) [CN-CC-861 2, reference compound] | 0.125 to 4 µg/mL (≈ 0.158 to 5.05 µM) | 0.06 to 0.25 µg/mL (≈ 0.0757 to 0.315 µM) | 0.02 µg/mL (≈ 0.0252 µM) | 0.5 to 1 µg/mL (≈ 0.631 to 1.26 µM) | 0.02 to 0.03 µg/mL (≈ 0.0252 to 0.0378 µM) | 1 µg/mL (≈ 1.26 µM) | – | – | 0.03 to 0.2 µg/mL (≈ 0.0378 to 0.252 µM) | 8 µg/mL (≈ 10.1 µM) | 0.06 to 0.25 µg/mL (≈ 0.0757 to 0.315 µM) | – | 0.5 to 16 µg/mL (≈ 0.631 to 20.2 µM) | 0.03 to 0.5 µg/mL (≈ 0.0378 to 0.631 µM) | 0.02 µg/mL (≈ 0.0252 µM) | – | < 0.03 µg/mL
6 | C#CC[C@H](NC(=O)c1ccc(NC(=O)c2ccc(C#N)cc2)cc1)C(=O)Nc1ccc(CNc2ccc(C(=O)Nc3ccc(C(=O)O)cc3)c(O)c2OC(C)C)cc1 [Cmpd. 40] | > 64 µg/mL | 0.5 µg/mL (≈ 0.642 µM) | 0.25 µg/mL (≈ 0.321 µM) | > 8 µg/mL | 0.5 µg/mL (≈ 0.642 µM) | > 8 µg/mL | > 64 µg/mL | 0.5 to 1 µg/mL (≈ 0.642 to 1.28 µM) | > 64 µg/mL | > 64 µg/mL | 1 µg/mL (≈ 1.28 µM) | > 64 µg/mL | > 64 µg/mL | 2 µg/mL (≈ 2.57 µM) | 0.5 to 1 µg/mL (≈ 0.642 to 1.28 µM) | > 64 µg/mL | 0.25 µg/mL (≈ 0.321 µM)
7 | CO[C@@H](C(N)=O)[C@H](NC(=O)c1ccc(NC(=O)c2ccc(C#N)cc2)cc1)C(=O)Nc1ccc(C(=O)Nc2ccc(C(=O)N(C)c3ccc(C(=O)O)cc3)c(O)c2OC(C)C)cc1 [Cmpd. 46] | > 64 µg/mL | > 8 µg/mL | > 8 µg/mL | > 8 µg/mL | > 8 µg/mL | > 8 µg/mL | > 64 µg/mL | < 0.03 µg/mL | > 64 µg/mL | > 64 µg/mL | > 64 µg/mL | > 64 µg/mL | > 64 µg/mL | > 64 µg/mL | > 64 µg/mL | > 64 µg/mL | > 64 µg/mL
8 | C#CC[C@H](NC(=O)c1ccc(NC(=O)c2ccc(C#N)cc2)cc1)C(=O)Nc1ccc(C(=O)Nc2ccc(C(=O)Nc3ccc(C(=O)O)cc3)c(O)c2OC)cc1 [Cmpd. 10] | 4 µg/mL (≈ 5.23 µM) | 0.25 µg/mL (≈ 0.327 µM) | – | 4 µg/mL (≈ 5.23 µM) | – | 4 µg/mL (≈ 5.23 µM) | 16 µg/mL (≈ 20.9 µM) | < 0.03 µg/mL | < 0.03 µg/mL | – | 1 µg/mL (≈ 1.31 µM) | 32 µg/mL (≈ 41.8 µM) | – | – | 0.5 µg/mL (≈ 0.654 µM) | < 0.03 µg/mL | –
9 | C#CC[C@H](NC(=O)c1ccc(NC(=O)c2ccc(C#N)cc2)cc1)C(=O)Nc1ccc(C(=O)Nc2ccc(-c3ncc4cc(C(=O)O)ccc4n3)c(O)c2OC(C)C)cc1 [Cmpd. 47] | – | – | > 64 µg/mL | > 64 µg/mL | > 64 µg/mL | > 64 µg/mL | – | – | > 64 µg/mL | > 64 µg/mL | > 64 µg/mL | – | > 64 µg/mL | > 64 µg/mL | > 64 µg/mL | – | –
10 | CO[C@@H](C(N)=O)[C@H](NC(=O)c1ccc(NC(=O)c2ccc(C#N)cc2)cc1)C(=O)Nc1ccc(C(=O)Nc2ccc(C(=O)Nc3ccc(C(=O)O)cc3)c(O)c2OC(C)C)cc1 [CN861 1, reference compound] | 4 µg/mL (≈ 4.75 µM) | 8 µg/mL (≈ 9.5 µM) | 0.25 µg/mL (≈ 0.297 µM) | > 64 µg/mL | 1 µg/mL (≈ 1.19 µM) | 64 µg/mL (≈ 76 µM) | 32 µg/mL (≈ 38 µM) | 0.25 µg/mL (≈ 0.297 µM) | 0.64 µg/mL (≈ 0.76 µM) | 16 µg/mL (≈ 19 µM) | 2 µg/mL (≈ 2.38 µM) | 16 µg/mL (≈ 19 µM) | 16 µg/mL (≈ 19 µM) | 1 µg/mL (≈ 1.19 µM) | 0.125 µg/mL (≈ 0.148 µM) | – | –
